Activity calls are given as the source filed them. No cut-off for these calls is given here.
Tests used:
Cytidine deaminase [1] = biological target: T1, Cytidine deaminase (Homo sapiens, UniProt P32320); assay: Compound was tested for its binding affinity against human cytidine deaminase;16-fold less potent than that of zebularine (16.5 uM)
Cytidine deaminase [2] = biological target: T1, Cytidine deaminase; assay: Inhibitory concentration of mouse or human Cytidine deaminase; No inhibition

T1 sequence (P32320 whole entry): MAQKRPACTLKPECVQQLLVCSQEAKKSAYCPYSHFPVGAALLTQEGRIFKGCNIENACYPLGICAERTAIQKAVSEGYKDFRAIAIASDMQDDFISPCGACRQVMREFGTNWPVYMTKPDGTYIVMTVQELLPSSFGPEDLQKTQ

O=c1ncccn1C1CC(CO)[C@@H](O)[C@H]1O (some centres not stated)
fold less potent than zebularine (Cytidine deaminase [1]): 16

O=c1ncccn1[C@H]1[C@H](O)[C@H](O)C2(CO)C[C@H]12 (single isomer, unassigned)
inhibition (Cytidine deaminase [2]): inactive

Source: ChEMBL document CHEMBL1131016, “Carbocyclic analogues of the potent cytidine deaminase inhibitor 1-(beta-D-ribofuranosyl)-1,2-dihydropyrimidin-2-one (zebularine)” (J Med Chem, 1998)
